Results: ChEMBL document CHEMBL1201862, “PubChem BioAssay data set” (2004)
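Briefly, cells in 96-well plates were exposed to five compound concentrations for 48 h, and endpoints were estimated by linear interpolation. The concentration for 50% growth inhibition is given as GI50.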 The source made the active and inactive calls. Rule as the data show it: active = GI50 up to about 1.1 µM and inactive = higher. Where a SMILES comes first, the peptide text is derived from it.

Legend:
Test in all cases: DTP human tumour cell line panel, 48 h
SN12C = system: SN12C
LOX IMVI = system: LOX IMVI
RXF 393 = system: RXF 393
PC-3 = system: PC-3
UACC-62 = system: UACC-62
HOP-92 = system: HOP-92
EKVX = system: EKVX
OVCAR-3 = system: OVCAR-3
NCI-H460 = system: NCI-H460
NCI-H522 = system: NCI-H522
SF-295 = system: SF-295
MOLT-4 = system: MOLT-4
SW-620 = system: SW-620
HCC 2998 = system: HCC 2998
OVCAR-8 = system: OVCAR-8
CCRF-CEM = system: CCRF-CEM
NCI/ADR-RES = system: NCI/ADR-RES
SK-MEL-28 = system: SK-MEL-28
U-251 = system: U-251
OVCAR-5 = system: OVCAR-5

| SMILES | GI50 (SN12C) | GI50 (LOX IMVI) | GI50 (RXF 393) | GI50 (PC-3) | GI50 (UACC-62) | GI50 (HOP-92) | GI50 (EKVX) | GI50 (OVCAR-3) | GI50 (NCI-H460) | GI50 (NCI-H522) | GI50 (SF-295) | GI50 (MOLT-4) | GI50 (SW-620) | GI50 (HCC 2998) | GI50 (OVCAR-8) | GI50 (CCRF-CEM) | GI50 (NCI/ADR-RES) | GI50 (SK-MEL-28) | GI50 (U-251) | GI50 (OVCAR-5) |
| --- | --- | --- | --- | --- | --- | --- | --- | --- | --- | --- | --- | --- | --- | --- | --- | --- | --- | --- | --- | --- |
| O=C(CC(O)(C(F)(F)F)C(F)(F)Cl)CC(O)(C(F)(F)F)C(F)(F)Cl (stereo not drawn) | 1.5 µM (inactive) | 2.82 µM (inactive) | 2.23 µM (inactive) | 1.64 µM (inactive) | 1.65 µM (inactive) | 1.71 µM (inactive) | 2.37 µM (inactive) | 1.62 µM (inactive) | 1.64 µM (inactive) | 1.61 µM (inactive) | 2.4 µM (inactive) | 6.27 µM (inactive) | 3.86 µM (inactive) | 3.04 µM (inactive) | 2.88 µM (inactive) | 3.86 µM (inactive) | 2.58 µM (inactive) | 4.34 µM (inactive) | 1.88 µM (inactive) |  |
| CCc1c(Cl)nc(Cl)nc1Cl | 0.333 µM (active) | 0.0199 µM (active) | 0.296 µM (active) | 0.698 µM (active) | 0.528 µM (active) | 0.565 µM (active) | 0.519 µM (active) | 0.104 µM (active) | 1.93 µM (inactive) | 0.0132 µM (active) | 2.05 µM (inactive) | 0.0173 µM (active) | 0.0449 µM (active) | 0.214 µM (active) | 0.299 µM (active) | < 0.0121 µM (active) | 0.382 µM (active) | 1.63 µM (inactive) | 0.331 µM (active) | 0.324 µM (active) |
| NC(=O)CSc1c2cc(O)ccc2nc2ccc(O)cc12 | > 10 µM (inactive) | > 10 µM (inactive) | > 10 µM (inactive) | > 10 µM (inactive) | > 10 µM (inactive) | > 10 µM (inactive) | > 10 µM (inactive) | > 10 µM (inactive) | > 10 µM (inactive) | > 10 µM (inactive) | > 10 µM (inactive) | > 10 µM (inactive) | > 10 µM (inactive) | > 10 µM (inactive) | > 10 µM (inactive) | > 10 µM (inactive) | > 10 µM (inactive) | > 10 µM (inactive) | > 10 µM (inactive) | > 10 µM (inactive) |
| O[C@H]1[C@H](O)[C@H](O)CN2CCC[C@@H](O)[C@H]12 | > 100 µM (inactive) | > 100 µM (inactive) | > 100 µM (inactive) | > 100 µM (inactive) | > 100 µM (inactive) | > 100 µM (inactive) | > 100 µM (inactive) | > 100 µM (inactive) |  | > 100 µM (inactive) | > 100 µM (inactive) | > 100 µM (inactive) | > 100 µM (inactive) | > 100 µM (inactive) | > 100 µM (inactive) | > 100 µM (inactive) | > 100 µM (inactive) | > 100 µM (inactive) | > 100 µM (inactive) | > 100 µM (inactive) |
| O=c1[nH]cnc2c1ncn2[C@@H]1C[C@H]1CO | > 100 µM (inactive) | > 100 µM (inactive) | > 100 µM (inactive) | > 100 µM (inactive) | > 100 µM (inactive) | > 100 µM (inactive) | > 100 µM (inactive) |  | > 100 µM (inactive) | > 100 µM (inactive) |  | > 100 µM (inactive) | > 100 µM (inactive) | > 100 µM (inactive) | > 100 µM (inactive) | > 100 µM (inactive) | > 100 µM (inactive) | > 100 µM (inactive) | > 100 µM (inactive) | > 100 µM (inactive) |
| Nc1ccc2c(c1)Cc1ccccc1-2 | > 100 µM (inactive) | 80.7 µM (inactive) | 48.1 µM (inactive) | 64.9 µM (inactive) | 59.4 µM (inactive) | 28.9 µM (inactive) | 37.1 µM (inactive) | 45.4 µM (inactive) | 69.8 µM (inactive) |  | > 100 µM (inactive) | 34.7 µM (inactive) | > 100 µM (inactive) | > 100 µM (inactive) | > 100 µM (inactive) | 23.6 µM (inactive) | > 100 µM (inactive) | > 100 µM (inactive) | > 100 µM (inactive) | > 100 µM (inactive) |
| CC(C)CC(NC(=O)C(Cc1ccccc1)NC(=O)C(Cc1c[nH]c2ccccc12)NC(=O)CNC(=O)C(N)Cc1ccc(O)cc1)C(=O)O (stereo not drawn) (H-YGWFL-OH; configuration not given here) | 48.6 µM (inactive) |  | 40.3 µM (inactive) | 44.7 µM (inactive) | 67.3 µM (inactive) | 14 µM (inactive) | 35.2 µM (inactive) | 23.2 µM (inactive) | 44.4 µM (inactive) | 34 µM (inactive) | 49.7 µM (inactive) | 59.7 µM (inactive) |  | 34.3 µM (inactive) | 46.5 µM (inactive) | 42.6 µM (inactive) | 67.6 µM (inactive) | 95.3 µM (inactive) | 34.6 µM (inactive) | > 100 µM (inactive) |
